Test results as given in patent US5140009A (Tap Pharmaceuticals, Inc., priority 1990, dated 1992).
Where two headings read alike, the source gives them in different places. Numbered stars: 1 amine (or outer) side, 2 acyl side, 3 side chain; on linkers, the order of the positions; unused ones are H or OH. Square brackets hold non-standard residues; d marks the D form. Peptide text beside a SMILES is read from it. * marks the point of attachment. Propanoyl(3-indol-3-yl) = O=C(CCc1c[nH]c2ccccc12)*; Acetyl(1-adamantyl) = O=C(CC12CC3CC(CC(C3)C1)C2)*; Propanoyl(3-(4-F-phenyl)) = O=C(CCc1ccc(F)cc1)*; Hydrocinnamoyl(2,4-F2) = O=C(CCc1ccc(F)cc1F)*; Propanoyl(3-(3-pyridyl)) = O=C(CCc1cccnc1)*; X10 = O=C([C@@H](Cc1cncs1)N[*:1])[*:2]; 1Nal = N[C@@H](Cc1cccc2ccccc12)C(=O)O; 2Nal = N[C@@H](Cc1ccc2ccccc2c1)C(=O)O; Desaminohistidyl = O=C(CCc1c[nH]cn1)*; d1Nal = N[C@H](Cc1cccc2ccccc12)C(=O)O; d2Nal = N[C@H](Cc1ccc2ccccc2c1)C(=O)O; NMeY = CN[C@@H](Cc1ccc(O)cc1)C(=O)O; Hydrocinnamoyl = O=C(CCc1ccccc1)*; d3Pal = N[C@H](Cc1cccnc1)C(=O)O; d2Thi = N[C@H](Cc1cccs1)C(=O)O; Nicotinoyl = O=C(c1cccnc1)*; X3 = O=C(CCc1ccc2ccccc2c1)*; Morpholide = C1CN(*)CCO1; CO = O=C([*:1])[*:2]

Molecular target: T1, LHRH receptors (Rattus norvegicus, UniProt P30969)
T1 construct: Pituitary membranes containing LHRH receptors are prepared in batches from quick-frozen rat pituitaries; tissue Hilltop Labs; host or cells: rat pituitary membranes
T1 sequence (P30969 1-327): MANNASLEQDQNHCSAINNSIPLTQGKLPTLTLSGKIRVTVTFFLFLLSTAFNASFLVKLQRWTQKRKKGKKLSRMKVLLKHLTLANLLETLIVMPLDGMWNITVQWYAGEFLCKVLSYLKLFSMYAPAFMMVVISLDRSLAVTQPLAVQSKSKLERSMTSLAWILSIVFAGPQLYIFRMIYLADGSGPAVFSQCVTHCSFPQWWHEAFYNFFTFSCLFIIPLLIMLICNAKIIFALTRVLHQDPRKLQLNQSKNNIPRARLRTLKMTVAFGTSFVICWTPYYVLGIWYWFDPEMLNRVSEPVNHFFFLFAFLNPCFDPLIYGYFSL
Assay: Receptor Binding (radioligand receptor binding assay)
Settings: rat pituitary membranes, 2 hours at 4° C., read-out: Receptor Binding pkI (converted)

[1] = table 3, radioiodinated [D-Leu^6 -des Gly^10 ]-LHRH ethyl amide 50 pM

| Ki (table 4, radioligand 50 pM) [nM] | Ki [1] [nM] | Compound |
| --- | --- | --- |
| 0.0224 |  | CC(C)C[C@H](NC(=O)[C@@H](CCCCNC(=O)c1cccnc1)NC(=O)[C@H](Cc1ccc(O)cc1)N(C)C(=O)[C@H](CO)NC(=O)[C@@H](Cc1ccc2ccccc2c1)NC(=O)CCc1ccc(F)cc1)C(=O)N[C@@H](CCCNC(=N)N)C(=O)N1CCC[C@H]1C(=O)N[C@H](C)C(N)=O [Compound 187, (3-10)[N-(3-(4-Fluorophenyl)propionyl)-D-2-Nal^3 -NMeTyr^5 -D-Lys^6 (N-epsilon-nicotinyl)-D-Ala^10]LHRH] ({Propanoyl(3-(4-F-phenyl))}-[d2Nal]S[NMeY][dK](Nicotinoyl)LRP[dA]-NH2) |
| 0.0263 |  | CC(C)C[C@H](NC(=O)[C@@H](CCCCN)NC(=O)[C@H](Cc1ccc(O)cc1)N(C)C(=O)[C@H](CO)NC(=O)[C@@H](Cc1cncs1)NC(=O)CCc1ccc(F)cc1)C(=O)N[C@@H](CCCNC(=N)N)C(=O)N1CCC[C@H]1C(=O)N[C@H](C)C(N)=O [Compound 183, (3-10)[N-(3-(4-Fluorophenyl)propionyl)-D-Thiaz^3 -NMeTyr^5 -D-Lys^6 -D-Ala^10]LHRH] ({Propanoyl(3-(4-F-phenyl))}-[X10]S[NMeY][dK]LRP[dA]-NH2) |
|  | 0.347 | CCNC(=O)[C@@H]1CCCN1C(=O)[C@H](CCCN=C(N)N)NC(=O)[C@H](CC(C)C)NC(=O)[C@@H](CCCCNC(=O)c1cccnc1)NC(=O)[C@H](Cc1ccc(O)cc1)NC(=O)[C@H](CO)NC(=O)[C@H](Cc1c[nH]c2ccccc12)NC(=O)CCc1ccc(F)cc1 [Compound 119, N-(3-(4-Fluorophenyl)propionyl)-Trp-Ser-Tyr-D-Lys(Nic) -Leu-Arg-Pro-NHEt] ({Propanoyl(3-(4-F-phenyl))}-WSY[dK](Nicotinoyl)LRP-NHEt) |
| 0.00398 |  | CC(C)C[C@H](NC(=O)[C@@H](CO)NC(=O)[C@H](Cc1ccc(O)cc1)N(C)C(=O)[C@H](CO)NC(=O)[C@@H](Cc1cccc2ccccc12)NC(=O)CCc1ccc(F)cc1)C(=O)N[C@@H](CCCNC(=N)N)C(=O)N1CCC[C@H]1C(=O)N[C@H](C)C(N)=O [Compound 181, (3-10)[N-(3-(4-Fluorophenyl)propionyl)-D-1-Nal^3 -NMeTyr^5 -D-Ser^6 -D-Ala^10]LHRH] ({Propanoyl(3-(4-F-phenyl))}-[d1Nal]S[NMeY][dS]LRP[dA]-NH2) |
| 0.708 |  | CCNC(=O)[C@@H]1CCCN1C(=O)[C@H](CCCNC(=N)N)NC(=O)[C@H](CC(C)C)NC(=O)[C@@H](Cc1c[nH]c2ccccc12)NC(=O)[C@H](Cc1ccc(O)cc1)NC(=O)[C@H](CO)NC(=O)[C@@H](Cc1cccs1)NC(=O)[C@H](Cc1ccccc1)NC(=O)N1CCOCC1 [Compound 236, (2-9)[N-(alpha-Morpholinocarbonyl)-Phe^2 -D-Thia^3 -D-Trp^6 -Pro^9 NHEt]LHRH] ({Morpholide-CO}-F[d2Thi]SY[dW]LRP-NHEt) |
|  | 1.45 | CCNC(=O)[C@@H]1CCCN1C(=O)[C@H](CCCNC(=N)N)NC(=O)[C@H](CC(C)C)NC(=O)[C@@H](Cc1c[nH]c2ccccc12)NC(=O)[C@H](Cc1ccc(O)cc1)NC(=O)[C@H](CO)NC(=O)[C@H](Cc1c[nH]c2ccccc12)NC(=O)[C@H](Cc1ccccc1)NC(=O)CCc1ccc2ccccc2c1 [Compound 133, N-3-(2-Naphthyl)propionyl-Phe-Trp-Ser-Tyr-D-Trp-Leu-Arg -Pro-NHEt] (X3-FWSY[dW]LRP-NHEt) |
| 0.055 |  | CCNC(=O)[C@@H]1CCCN1C(=O)[C@H](CCCNC(=N)N)NC(=O)[C@H](CC(C)C)NC(=O)[C@@H](Cc1c[nH]c2ccccc12)NC(=O)[C@H](Cc1ccc(O)cc1)NC(=O)[C@H](CO)NC(=O)[C@@H]1CCCN1C(=O)CCc1ccc(F)cc1 [Compound 148, (3-9)[N-(3-(4-Fluorophenyl)propionyl) -Pro^3 -D-Trp^6 -Pro^9 NHEt]LHRH] ({Propanoyl(3-(4-F-phenyl))}-PSY[dW]LRP-NHEt) |
| 0.0676 |  | CC(C)C[C@H](NC(=O)[C@@H](CCCCNC(=O)c1cccnc1)NC(=O)[C@H](Cc1ccc(O)cc1)N(C)C(=O)[C@H](CO)NC(=O)[C@@H](Cc1cccnc1)NC(=O)CCc1ccc(F)cc1)C(=O)N[C@@H](CCCNC(=N)N)C(=O)N1CCC[C@H]1C(=O)N[C@H](C)C(N)=O [Compound 171] ({Propanoyl(3-(4-F-phenyl))}-[d3Pal]S[NMeY][dK](Nicotinoyl)LRP[dA]-NH2) |
|  | 0.00955 | CCNC(=O)[C@@H]1CCCN1C(=O)[C@H](CCCN=C(N)N)NC(=O)[C@H](CC(C)C)NC(=O)[C@@H](CCCCNC(=O)c1cccnc1)NC(=O)[C@H](Cc1ccc(O)cc1)N(C)C(=O)[C@H](CO)NC(=O)[C@@H](Cc1c[nH]c2ccccc12)NC(=O)CCc1ccc(F)cc1 [Compound 122, N-(3-(4-Fluorophenyl)propionyl)-D-Trp-Ser-N-Me-Tyr-D -Lys(Nic)-Leu-Arg-ProNHEt] ({Propanoyl(3-(4-F-phenyl))}-[dW]S[NMeY][dK](Nicotinoyl)LRP-NHEt) |
| 0.0174 |  | CCNC(=O)[C@@H]1CCCN1C(=O)[C@H](CCCNC(=N)N)NC(=O)[C@H](CC(C)C)NC(=O)[C@@H](Cc1c[nH]c2ccccc12)NC(=O)[C@H](Cc1ccc(O)cc1)N(C)C(=O)[C@H](CO)NC(=O)[C@H](Cc1cccc2ccccc12)NC(=O)CCc1ccc(F)cc1 [Compound 158, (3-9)[N-(3-(4-Fluorophenyl)propionyl) -1-Nal^3 -NMeTyr^5 -DTrp^6 -Pro^9 NHEt]LHRH] ({Propanoyl(3-(4-F-phenyl))}-[1Nal]S[NMeY][dW]LRP-NHEt) |
|  | 1 | CCNC(=O)[C@@H]1CCCN1C(=O)[C@H](CCCNC(=N)N)NC(=O)[C@H](CC(C)C)NC(=O)[C@@H](Cc1c[nH]c2ccccc12)NC(=O)[C@H](Cc1ccc(O)cc1)NC(=O)[C@H](CO)NC(=O)[C@H](Cc1ccc2ccccc2c1)NC(=O)N1CCOCC1 [Compound 138, N-(N-alpha-morpholinocarbonyl) -2-Nal-Ser-Tyr-D-Trp-Leu-Arg-ProNHEt] ({Morpholide-CO}-[2Nal]SY[dW]LRP-NHEt) |

The next lines start with the compound.

| Compound | Ki (table 4, radioligand 50 pM) [nM] | Ki [1] [nM] |
| --- | --- | --- |
| CCNC(=O)[C@@H]1CCCN1C(=O)[C@H](CCCNC(=N)N)NC(=O)[C@H](CC(C)C)NC(=O)[C@@H](CC(C)C)NC(=O)[C@H](Cc1ccc(O)cc1)NC(=O)[C@H](CO)NC(=O)[C@H](Cc1c[nH]c2ccccc12)NC(=O)CCc1ccccc1 [Compound 66, (3-9)[N-(3-Phenylpropionyl)-Trp^3 -D-Leu^6 -Pro^9 -NHEt]LHRH] (Hydrocinnamoyl-WSY[dL]LRP-NHEt) |  | 1.78 |
| CCNC(=O)[C@@H]1CCCN1C(=O)[C@H](CCCNC(=N)N)NC(=O)[C@H](CC(C)C)NC(=O)[C@@H](Cc1c[nH]c2ccccc12)NC(=O)[C@H](Cc1ccc(O)cc1)N(C)C(=O)[C@H](CO)NC(=O)CC12CC3CC(CC(C3)C1)C2 [Compound 81, N-[(1-Adamantyl)acetyl]-Ser-N-Me-Tyr-D-Trp-Leu-Arg-Pro -NHEt] ({Acetyl(1-adamantyl)}-S[NMeY][dW]LRP-NHEt) |  | 0.589 |
| CCNC(=O)[C@@H]1CCCN1C(=O)[C@H](CCCN=C(N)N)NC(=O)[C@H](CC(C)C)NC(=O)[C@@H](Cc1c[nH]c2ccccc12)NC(=O)[C@H](Cc1ccc(O)cc1)NC(=O)[C@@H]1CCCN1C(=O)[C@@H](Cc1c[nH]c2ccccc12)NC(=O)CCc1ccc(F)cc1 [Compound 100, (3-9)[N-(3-(4-Fluorophenyl)propionyl)-D -Trp^3,6 -Pro^4,9 NHEt]LHRH] ({Propanoyl(3-(4-F-phenyl))}-[dW]PY[dW]LRP-NHEt) |  | 2.88 |
| CCNC(=O)[C@@H]1CCCN1C(=O)[C@H](CCCNC(=N)N)NC(=O)[C@H](CC(C)C)NC(=O)[C@@H](Cc1c[nH]c2ccccc12)NC(=O)[C@H](Cc1ccc(O)cc1)NC(=O)[C@H](CO)NC(=O)[C@H](Cc1c[nH]c2ccccc12)NC(=O)[C@H](Cc1c[nH]cn1)NC(=O)CCc1cnc[nH]1 [Compound 69, N-(3-(5-Imidazolyl)propionyl)-His-Trp-Ser-Tyr-D-Trp-Leu-Arg-Pro-NHEt] (Desaminohistidyl-HWSY[dW]LRP-NHEt) |  | 1.05 |
| CCNC(=O)[C@@H]1CCCN1C(=O)[C@H](CCCN=C(N)N)NC(=O)[C@H](CC(C)C)NC(=O)[C@@H](CC(C)C)NC(=O)[C@H](Cc1ccc(O)cc1)NC(=O)[C@H](CO)NC(=O)CCc1cccnc1 [Compound 41, (4-9)[N-(3-(3-Pyridyl)propionyl)-Ser^4 -D-Leu^6 -Pro^9 -NHEt]LHRH] ({Propanoyl(3-(3-pyridyl))}-SY[dL]LRP-NHEt) |  | 1740 |
| CCNC(=O)[C@@H]1CCCN1C(=O)[C@H](CCCN=C(N)N)NC(=O)[C@H](CC(C)C)NC(=O)[C@@H](Cc1c[nH]c2ccccc12)NC(=O)[C@H](Cc1ccc(O)cc1)NC(=O)[C@H](CO)NC(=O)[C@@H](Cc1c[nH]c2ccccc12)NC(=O)CCc1ccc(F)cc1F [Compound 90, (3-9)[N-(3-(2,4-Difluorophenyl)propionyl) -D-Trp^3,6 -Pro^9 NHEt]LHRH] ({Hydrocinnamoyl(2,4-F2)}-[dW]SY[dW]LRP-NHEt) |  | 0.0316 |
| CCNC(=O)CC[C@@H](NC(=O)[C@H](Cc1ccc(O)cc1)NC(=O)[C@H](CO)NC(=O)CCc1c[nH]c2ccccc12)C(=O)N[C@@H](CC(C)C)C(=O)N[C@@H](CCCNC(=N)N)C(=O)N1CCC[C@H]1C(=O)NCC [Compound 51, N-(3-(3-Indole)propionyl)-Ser-Tyr-N-delta-ethyl-D-Gln-Leu-Arg-ProNHEt] ({Propanoyl(3-indol-3-yl)}-SY[dE](NHEt)LRP-NHEt) |  | 132 |
| CCNC(=O)[C@@H]1CCCN1C(=O)[C@H](CCCNC(=N)N)NC(=O)[C@H](CC(C)C)NC(=O)[C@@H](Cc1c[nH]c2ccccc12)NC(=O)[C@H](Cc1ccc(O)cc1)NC(=O)[C@H](CO)NC(=O)[C@H](Cc1c[nH]c2ccccc12)NC(=O)[C@H](Cc1ccccc1)NC(C)=O [Compound 72, N-Acetyl-Phe-Trp-Ser-Tyr-D-Trp-Leu-Arg-ProNHEt] (Ac-FWSY[dW]LRP-NHEt) |  | 0.166 |
